Laboratory results published in US12252524B2, “GIP/GLP1 co-agonist compounds” (Eli Lilly and Company, priority 2018, dated 2025).
Numbered stars: 1 amine (or outer) side, 2 acyl side, 3 side chain; on linkers, the order of the positions; unused ones are H or OH. Square brackets hold non-standard residues; d marks the D form. Side chains are listed from the residue outwards. Peptide text beside a SMILES is read from it. * marks the point of attachment. C20 diacid = O=C(O)CCCCCCCCCCCCCCCCCCC(=O)*; C18 diacid = O=C(O)CCCCCCCCCCCCCCCCC(=O)*; γGlu = O=C(O)[C@H](CCC(=O)[*:2])N[*:1]; αMeY = C[C@](N)(Cc1ccc(O)cc1)C(=O)O; αMeL = CC(C)C[C@](C)(N)C(=O)O; Orn = NCCC[C@H](N)C(=O)O; AEEA = NCCOCCOCC(=O)O; Aib = CC(C)(N)C(=O)O

Experiments:
[1] = target: human GLP-1 receptor (GLP-1R) (Homo sapiens, UniProt P43220); assay: cAMP pharmacological functional assay in presence of casein, hGLP-1R; assay type: cell-based; details: HEK293 cells expressing hGLP-1R, 0.1% Casein, geometric mean; read-out: hGLP1R cAMP Rel EC50 nM (SEM, n)
Chain of human GLP-1 receptor (GLP-1R) (P43220 24-463): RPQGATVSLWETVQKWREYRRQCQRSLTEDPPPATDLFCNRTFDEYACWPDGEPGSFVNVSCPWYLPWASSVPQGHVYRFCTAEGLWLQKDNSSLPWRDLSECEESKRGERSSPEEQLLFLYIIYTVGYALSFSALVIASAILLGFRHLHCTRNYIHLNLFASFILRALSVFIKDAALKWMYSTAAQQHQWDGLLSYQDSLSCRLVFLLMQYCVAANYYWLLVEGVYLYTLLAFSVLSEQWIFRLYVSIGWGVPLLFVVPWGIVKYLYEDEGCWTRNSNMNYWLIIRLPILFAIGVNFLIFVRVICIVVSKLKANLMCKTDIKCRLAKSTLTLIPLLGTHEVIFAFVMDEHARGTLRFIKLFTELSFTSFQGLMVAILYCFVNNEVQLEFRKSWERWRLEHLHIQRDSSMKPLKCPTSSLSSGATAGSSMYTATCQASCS

[2] = target: T1, gastric inhibitory peptide receptor (GIPR) (Homo sapiens, UniProt P48546); assay: cAMP pharmacological functional assay in presence of casein, hGIPR; assay type: cell-based; details: HEK293 cells expressing hGIPR, 0.1% Casein, geometric mean; read-out: hGIPR cAMP Rel EC50 nM (SEM, n)
T1 sequence (P48546 22-466): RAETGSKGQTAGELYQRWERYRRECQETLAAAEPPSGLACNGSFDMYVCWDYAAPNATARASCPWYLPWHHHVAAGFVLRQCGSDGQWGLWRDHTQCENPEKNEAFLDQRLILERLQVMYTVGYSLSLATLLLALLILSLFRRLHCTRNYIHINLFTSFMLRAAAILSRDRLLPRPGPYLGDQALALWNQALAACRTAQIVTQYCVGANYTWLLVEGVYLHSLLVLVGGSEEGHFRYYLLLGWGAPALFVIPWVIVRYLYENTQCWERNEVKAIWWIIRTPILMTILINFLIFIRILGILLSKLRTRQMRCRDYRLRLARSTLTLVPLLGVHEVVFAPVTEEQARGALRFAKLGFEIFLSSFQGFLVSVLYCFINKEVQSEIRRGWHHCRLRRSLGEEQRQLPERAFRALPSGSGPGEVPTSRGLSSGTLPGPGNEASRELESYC

human GLP-1R [3] = target: T2, human GLP-1R (Homo sapiens, UniProt P43220); assay: GLP-1R CHO cell β-arrestin recruitment assay; assay type: cell-based; set-up: host or cells: CHO-K1 PathHunter cells, assay-ready frozen; details: for EC50: CHO-K1 cells, PathHunter β-arrestin-2 recruitment, 0.1% casein, read-out: hGLP1R B-Arrestin2 Rel EC50 uM (SEM, n); for hGLP1R B-Arrestin2 % Top: normalized to GLP-1 maximum control
T2 sequence (P43220 24-463): as the sequence (P43220 24-463) above
In short: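 PathHunter CHO-K1 cells with ProLink-tagged human GLP-1R and enzyme-acceptor-tagged β-arrestin-2 treated with serially diluted peptides in assay buffer containing 0.1% hydrolyzed casein, 90 min at 37 °C.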

human GLP-1R [4] = target: T2, human GLP-1R; assay: GLP-1R HEK293 cell membrane [35S]GTPγS binding assay; assay type: biochemical; set-up: expressed in transfected cells; host or cells: HEK293 cells expressing human GLP-1R; membranes; details: HEK293 cell membranes expressing human GLP-1R, [35S]GTPγS binding; read-out: hGLP1R GTPgS Rel EC50 nM (SEM, n)
In short: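 Membranes from HEK293 cells expressing the receptor incubated with peptide and […] [35S]GTPγS in HEPES pH 7.4 buffer with NaCl, MgCl2, saponin and BSA, 30 min at room temperature. Gαs-bound label captured by anti-Gαs antibody/SPA beads and counted; EC50 from four-parameter logistic fit.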

Row | Structure (SMILES) | EC50 [1] | EC50 [2] | EC50 (human GLP-1R [3]) | hGLP1R B-Arrestin2 % Top (human GLP-1R [3]) | EC50 (human GLP-1R [4])
1 | CC[C@H](C)[C@H](NC(=O)[C@H](CC(C)C)NC(=O)[C@H](Cc1ccc(O)cc1)NC(=O)[C@H](CCC(=O)O)NC(=O)[C@@H](NC(=O)[C@H](Cc1ccccc1)NC(=O)[C@H](CCC(=O)O)NC(=O)C(C)(C)NC(=O)[C@H](CCC(N)=O)NC(=O)[C@H](C)NC(=O)[C@H](CCCCNC(=O)COCCOCCNC(=O)COCCOCCNC(=O)CC[C@H](NC(=O)CCCCCCCCCCCCCCCCC(=O)O)C(=O)O)NC(=O)[C@H](CCCN)NC(=O)[C@H](CC(=O)O)NC(=O)[C@H](CC(C)C)NC(=O)[C@](C)(CC(C)C)NC(=O)[C@@H](NC(=O)[C@H](CO)NC(=O)[C@H](Cc1ccc(O)cc1)NC(=O)[C@H](CC(=O)O)NC(=O)[C@H](CO)NC(=O)[C@@H](NC(=O)[C@H](Cc1ccccc1)NC(=O)[C@@H](NC(=O)CNC(=O)[C@H](CCC(=O)O)NC(=O)C(C)(C)NC(=O)[C@H](N)Cc1ccc(O)cc1)[C@@H](C)O)[C@@H](C)O)[C@@H](C)CC)[C@@H](C)CC)C(=O)N[C@@H](C)C(=O)NCC(=O)NCC(=O)N1CCC[C@H]1C(=O)N[C@@H](CO)C(=O)N[C@@H](CO)C(=O)NCC(=O)N[C@@H](C)C(=O)N1CCC[C@H]1C(=O)N1CCC[C@H]1C(=O)N1CCC[C@H]1C(=O)N[C@@H](CO)C(N)=O [Example 368] (H-[dY][Aib]EGTFTSDYSI[αMeL]LD[Orn]K([AEEA-AEEA-γGlu-C18 diacid])AQ[Aib]EFIEYLIAGGPSSGAPPPS-NH2) | 0.108 nM | 0.0757 nM | 0.0479 µM | 21.3% | 0.495 nM
2 | CC[C@H](C)[C@H](NC(=O)[C@H](CC(C)C)NC(=O)[C@H](Cc1ccc(O)cc1)NC(=O)[C@H](CCC(=O)O)NC(=O)[C@@H](NC(=O)[C@H](Cc1ccccc1)NC(=O)[C@H](CC(=O)O)NC(=O)C(C)(C)NC(=O)[C@H](CCC(N)=O)NC(=O)[C@H](C)NC(=O)[C@H](CCCCNC(=O)COCCOCCNC(=O)COCCOCCNC(=O)CC[C@H](NC(=O)CCCCCCCCCCCCCCCCCCC(=O)O)C(=O)O)NC(=O)[C@H](CCCN)NC(=O)[C@H](CC(=O)O)NC(=O)[C@H](CC(C)C)NC(=O)[C@](C)(CC(C)C)NC(=O)[C@@H](NC(=O)[C@H](CO)NC(=O)[C@H](Cc1ccc(O)cc1)NC(=O)[C@H](CC(=O)O)NC(=O)[C@H](CO)NC(=O)[C@@H](NC(=O)[C@H](Cc1ccccc1)NC(=O)[C@@H](NC(=O)CNC(=O)[C@H](CCC(=O)O)NC(=O)C(C)(C)NC(=O)[C@H](N)Cc1ccc(O)cc1)[C@@H](C)O)[C@@H](C)O)[C@@H](C)CC)[C@@H](C)CC)C(=O)N[C@@H](C)C(=O)NCC(=O)NCC(=O)N1CCC[C@H]1C(=O)N[C@@H](CO)C(=O)N[C@@H](CO)C(=O)NCC(=O)N[C@@H](C)C(=O)N1CCC[C@H]1C(=O)N1CCC[C@H]1C(=O)N1CCC[C@H]1C(=O)N[C@@H](CO)C(N)=O [Example 369] (H-[dY][Aib]EGTFTSDYSI[αMeL]LD[Orn]K([AEEA-AEEA-γGlu-C20 diacid])AQ[Aib]DFIEYLIAGGPSSGAPPPS-NH2; N-terminus assumed) | 0.101 nM | 0.166 nM | 0.0414 µM | 19.9% | 0.381 nM
3 | CC[C@H](C)[C@H](NC(=O)[C@H](CC(C)C)NC(=O)[C@H](Cc1ccc(O)cc1)NC(=O)[C@H](CCC(=O)O)NC(=O)[C@@H](NC(=O)[C@H](Cc1ccccc1)NC(=O)[C@H](CCC(=O)O)NC(=O)C(C)(C)NC(=O)[C@H](CCC(N)=O)NC(=O)[C@H](C)NC(=O)[C@H](CCCCNC(=O)COCCOCCNC(=O)COCCOCCNC(=O)CC[C@H](NC(=O)CCCCCCCCCCCCCCCCCCC(=O)O)C(=O)O)NC(=O)[C@H](CCCN)NC(=O)[C@H](CC(=O)O)NC(=O)[C@H](CC(C)C)NC(=O)[C@](C)(CC(C)C)NC(=O)[C@@H](NC(=O)[C@H](CO)NC(=O)[C@H](Cc1ccc(O)cc1)NC(=O)[C@H](CC(=O)O)NC(=O)[C@H](CO)NC(=O)[C@@H](NC(=O)[C@H](Cc1ccccc1)NC(=O)[C@@H](NC(=O)CNC(=O)[C@H](CCC(=O)O)NC(=O)C(C)(C)NC(=O)[C@H](N)Cc1ccc(O)cc1)[C@@H](C)O)[C@@H](C)O)[C@@H](C)CC)[C@@H](C)CC)C(=O)N[C@@H](C)C(=O)NCC(=O)NCC(=O)N1CCC[C@H]1C(=O)N[C@@H](CO)C(=O)N[C@@H](CO)C(=O)NCC(N)=O [Example 370] (H-[dY][Aib]EGTFTSDYSI[αMeL]LD[Orn]K([AEEA-AEEA-γGlu-C20 diacid])AQ[Aib]EFIEYLIAGGPSSG-NH2) | 0.186 nM | 0.117 nM | 0.0099 µM | 23.0% | 0.428 nM
4 | CC[C@H](C)[C@H](NC(=O)[C@H](CC(C)C)NC(=O)[C@H](Cc1ccc(O)cc1)NC(=O)[C@H](CCC(=O)O)NC(=O)[C@@H](NC(=O)[C@H](Cc1ccccc1)NC(=O)[C@H](CCC(=O)O)NC(=O)C(C)(C)NC(=O)[C@H](CCC(N)=O)NC(=O)[C@H](C)NC(=O)[C@H](CCCCNC(=O)COCCOCCNC(=O)CC[C@H](NC(=O)CCCCCCCCCCCCCCCCCCC(=O)O)C(=O)O)NC(=O)[C@H](CCCN)NC(=O)[C@H](CC(=O)O)NC(=O)[C@H](CC(C)C)NC(=O)[C@](C)(CC(C)C)NC(=O)[C@@H](NC(=O)[C@H](CO)NC(=O)[C@H](Cc1ccc(O)cc1)NC(=O)[C@H](CC(=O)O)NC(=O)[C@H](CO)NC(=O)[C@@H](NC(=O)[C@H](Cc1ccccc1)NC(=O)[C@@H](NC(=O)CNC(=O)[C@H](CCC(=O)O)NC(=O)C(C)(C)NC(=O)[C@H](N)Cc1ccc(O)cc1)[C@@H](C)O)[C@@H](C)O)[C@@H](C)CC)[C@@H](C)CC)C(=O)N[C@@H](C)C(=O)NCC(=O)NCC(=O)N1CCC[C@H]1C(=O)N[C@@H](CO)C(=O)N[C@@H](CO)C(=O)NCC(=O)N[C@@H](C)C(=O)N1CCC[C@H]1C(=O)N1CCC[C@H]1C(=O)N1CCC[C@H]1C(=O)N[C@@H](CO)C(N)=O [Example 371] (H-[dY][Aib]EGTFTSDYSI[αMeL]LD[Orn]K([AEEA-γGlu-C20 diacid])AQ[Aib]EFIEYLIAGGPSSGAPPPS-NH2) | 0.132 nM | 0.135 nM | 0.0142 µM | 21.7% | 0.27 nM
5 | CC[C@H](C)[C@H](NC(=O)[C@H](CC(C)C)NC(=O)[C@](C)(Cc1ccc(O)cc1)NC(=O)[C@H](CCC(=O)O)NC(=O)[C@@H](NC(=O)[C@H](Cc1ccccc1)NC(=O)[C@H](CCC(=O)O)NC(=O)C(C)(C)NC(=O)[C@H](CCC(N)=O)NC(=O)[C@H](C)NC(=O)[C@H](CCCCNC(=O)COCCOCCNC(=O)CC[C@H](NC(=O)CCCCCCCCCCCCCCCCCCC(=O)O)C(=O)O)NC(=O)[C@H](CCCCN)NC(=O)[C@H](CC(=O)O)NC(=O)[C@H](CC(C)C)NC(=O)[C@](C)(CC(C)C)NC(=O)[C@@H](NC(=O)[C@H](CO)NC(=O)[C@H](Cc1ccc(O)cc1)NC(=O)[C@H](CC(=O)O)NC(=O)[C@H](CO)NC(=O)[C@@H](NC(=O)[C@H](Cc1ccccc1)NC(=O)[C@@H](NC(=O)CNC(=O)[C@H](CCC(=O)O)NC(=O)C(C)(C)NC(=O)[C@H](N)Cc1ccc(O)cc1)[C@@H](C)O)[C@@H](C)O)[C@@H](C)CC)[C@@H](C)CC)C(=O)N[C@@H](C)C(=O)NCC(=O)NCC(=O)N1CCC[C@H]1C(=O)N[C@@H](CO)C(=O)N[C@@H](CO)C(=O)NCC(=O)N[C@@H](C)C(=O)N1CCC[C@H]1C(=O)N1CCC[C@H]1C(=O)N1CCC[C@H]1C(=O)N[C@@H](CO)C(N)=O [Example 372] (H-[dY][Aib]EGTFTSDYSI[αMeL]LDKK([AEEA-γGlu-C20 diacid])AQ[Aib]EFIE[αMeY]LIAGGPSSGAPPPS-NH2) | 0.365 nM | 0.0781 nM | 0.00981 µM | 32.9% | 0.379 nM
